# Results from US11434242B2, “Dopamine-b-hydroxylase inhibitors” (BIAL-PORTELA & Cª, S.A., priority 2017, dated 2022).
# Target: T1, Dopamine beta hydroxylase (Homo sapiens, UniProt P09172)
# T1 construct: 125 μl of plasma; tissue Instituto Português do Sangue Transplantação; host or cells: human plasma from healthy donors
# T1 sequence (P09172 40-617 limits assumed): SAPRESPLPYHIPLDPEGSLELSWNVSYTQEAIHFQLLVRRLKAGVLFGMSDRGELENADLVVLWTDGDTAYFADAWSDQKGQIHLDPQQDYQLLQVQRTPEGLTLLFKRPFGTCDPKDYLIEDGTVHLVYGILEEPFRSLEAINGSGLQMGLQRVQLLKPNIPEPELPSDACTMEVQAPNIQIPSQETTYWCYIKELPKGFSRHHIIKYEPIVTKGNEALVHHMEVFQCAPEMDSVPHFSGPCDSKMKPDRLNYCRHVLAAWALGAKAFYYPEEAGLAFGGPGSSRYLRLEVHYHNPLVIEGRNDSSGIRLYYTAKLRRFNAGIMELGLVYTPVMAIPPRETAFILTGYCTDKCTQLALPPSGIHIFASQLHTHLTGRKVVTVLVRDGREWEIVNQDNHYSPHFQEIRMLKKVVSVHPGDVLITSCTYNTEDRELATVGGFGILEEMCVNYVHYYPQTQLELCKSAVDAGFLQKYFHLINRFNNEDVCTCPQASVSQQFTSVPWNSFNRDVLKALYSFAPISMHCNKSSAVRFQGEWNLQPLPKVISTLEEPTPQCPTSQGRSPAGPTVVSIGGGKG
# Test: Dopamine beta hydroxylase activity in human plasma
# Format: biochemical
# Conditions: for Plasma (0.01 μM), activity in % of control: inhibitor 0.01 μM; for Plasma (0.1 μM), activity in % of control: inhibitor 0.1 μM; for Plasma (1 μM), activity in % of control: inhibitor 1 μM
# How it was run: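 Healthy-donor human plasma pre-incubated 10 min at 37° C with compound at final 10, 100 or 1000 nM in pH 5.0 acetate buffer with ascorbate, fumarate, pargyline, N-ethylmaleimide, catalase and copper sulfate. Tyramine substrate then added for 45 min; octopamine formed was isolated by SCX cartridge, periodate-converted and read at 330 nm; activity given as % control.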
SMILES,"Plasma (0.01 μM), activity in % of control","Plasma (0.1 μM), activity in % of control","Plasma (1 μM), activity in % of control"
"Cl.Cn1c(CCNC2CCCC2)c2n(c1=S)C[C@@]1(c3cc(Br)ccc3F)C[C@@H]21 [Example 330, (5aS,6aR)-5a-(5-bromo-2-fluorophenyl)-1-(2-(cyclopentylamino)ethyl)-2-methyl-5,5a,6,6a-tetrahydrocyclopropa[3,4]pyrrolo[1,2-c]imidazole-3(2H)-thione Hydrochloride]",71.7 % of control,32.5 % of control,–
"CN(C(=O)Cc1c2n(c(=S)n1C)C[C@@]1(c3cc(Br)ccc3F)C[C@@H]21)C1CCOCC1 [Example 439, 2-((5aS,6aR)-5a-(5-bromo-2-fluorophenyl)-2-methyl-3-thioxo-2,3,5,5a,6,6a-hexahydrocyclopropa[3,4]pyrrolo[1,2-c]imidazol-1-yl)-N-methyl-N-(tetrahydro-2H-pyran-4-yl)acetamide]",67.2 % of control,11.8 % of control,–
"CN(CCc1[nH]c(=S)n2c1C[C@@H](c1c(F)ccc(Cl)c1F)C2)C(=O)c1cccnc1 [Example 226, (S)—N-(2-(6-(3-chloro-2,6-difluorophenyl)-3-thioxo-2,5,6,7-tetrahydro-3H-pyrrolo[1,2-c]imidazol-1-yl)ethyl)-N-methylnicotinamide]",100.8 % of control,47.4 % of control,–
"Cn1c(CC(=O)N[C@@H]2CCCNC2=O)c2n(c1=S)C[C@@H](c1c(F)ccc(F)c1F)C2 [Example 354, 2-((R)-2-methyl-3-thioxo-6-(2,3,6-trifluorophenyl)-2,5,6,7-tetrahydro-3H-pyrrolo[1,2-c]imidazol-1-yl)-N—((R)-2-oxopiperidin-3-yl)acetamide]",106.2 % of control,53.4 % of control,–
"O=C(Cc1[nH]c(=S)n2c1C[C@H](c1c(F)ccc(Br)c1F)C2)NC1CCS(=O)(=O)CC1 [Example 130, (R)-2-(6-(3-bromo-2,6-difluorophenyl)-3-thioxo-2,5,6,7-tetrahydro-3H-pyrrolo[1,2-c]imidazol-1-yl)-N-(1,1-dioxidotetrahydro-2H-thiopyran-4-yl)acetamide]",55.7 % of control,8.4 % of control,–
"O=C(Cc1[nH]c(=S)n2c1C[C@@H](c1c(F)ccc(Br)c1F)C2)N[C@@H]1CCCOC1 [Example 402, 2-((S)-6-(3-bromo-2,6-difluorophenyl)-3-thioxo-2,5,6,7-tetrahydro-3H-pyrrolo[1,2-c]imidazol-1-yl)-N—((R)-tetrahydro-2H-pyran-3-yl)acetamide]",59.6 % of control,20.9 % of control,–
"Cn1c(CCC(=O)NCC#N)c2n(c1=S)C[C@@H](c1c(F)ccc(F)c1F)C2 [Example 270, (R)—N-(cyanomethyl)-3-(2-methyl-3-thioxo-6-(2,3,6-trifluorophenyl)-2,5,6,7-tetrahydro-3H-pyrrolo[1,2-c]imidazol-1-yl)propanamide]",88.1 % of control,53.8 % of control,–
"O=C(O)Cc1[nH]c(=S)n2c1C[C@H](c1c(F)ccc(Br)c1F)C2 [Example 13, (R)-2-(6-(3-bromo-2,6-difluorophenyl)-3-thioxo-2,5,6,7-tetrahydro-3H-pyrrolo[1,2-c]imidazol-1-yl)acetic Acid]",–,68.0 % of control,13.9 % of control
"O=C(O)Cc1[nH]c(=S)n2c1C[C@@H](c1c(F)ccc(Br)c1F)C2 [Example 12, (S)-2-(6-(3-bromo-2,6-difluorophenyl)-3-thioxo-2,5,6,7-tetrahydro-3H-pyrrolo[1,2-c]imidazol-1-yl)acetic Acid]",–,30.8 % of control,3.3 % of control
"Cn1c(CC(=O)Nc2nccs2)c2n(c1=S)C[C@@H](c1c(F)c(F)cc(F)c1F)C2 [Example 340, (R)-2-(2-methyl-6-(2,3,5,6-tetrafluorophenyl)-3-thioxo-2,5,6,7-tetrahydro-3H-pyrrolo[1,2-c]imidazol-1-yl)-N-(thiazol-2-yl)acetamide]",87.6 % of control,27.0 % of control,–
"Cc1nnc(NC(=O)Cc2c3n(c(=S)n2C)C[C@H](c2c(F)ccc(Cl)c2F)C3)o1 [Example 349, (S)-2-(6-(3-chloro-2,6-difluorophenyl)-2-methyl-3-thioxo-2,5,6,7-tetrahydro-3H-pyrrolo[1,2-c]imidazol-1-yl)-N-(5-methyl-1,3,4-oxadiazol-2-yl)acetamide]",72.3 % of control,12.5 % of control,–
"Cn1c(CC(=O)N[C@H]2CCOC2)c2n(c1=S)C[C@@H](c1c(F)c(F)cc(F)c1F)C2 [Example 295, 2-((R)-2-methyl-3-thioxo-6-(2,3,5,6-tetrafluorophenyl)-2,5,6,7-tetrahydro-3H-pyrrolo[1,2-c]imidazol-1-yl)-N—((S)-tetrahydrofuran-3-yl)acetamide]",95.6 % of control,71.5 % of control,–
"Cn1c(CCC(=O)N[C@@H]2CCCOC2)c2n(c1=S)C[C@@H](c1c(F)ccc(F)c1F)C2 [Example 288, 3-((R)-2-methyl-3-thioxo-6-(2,3,6-trifluorophenyl)-2,5,6,7-tetrahydro-3H-pyrrolo[1,2-c]imidazol-1-yl)-N—((R)-tetrahydro-2H-pyran-3-yl)propanamide]",82.0 % of control,81.1 % of control,–
"Cl.Cn1c(CC(=O)NCc2cnccn2)c2n(c1=S)C[C@@]1(c3cc(Cl)ccc3F)C[C@@H]21 [Example 335, 2-((5aS,6aR)-5a-(5-chloro-2-fluorophenyl)-2-methyl-3-thioxo-2,3,5,5a,6,6a-hexahydrocyclopropa[3,4]pyrrolo[1,2-c]imidazol-1-yl)-N-(pyrazin-2-ylmethyl)acetamide Hydrochloride]",44.9 % of control,8.7 % of control,–
"O=C(Cc1[nH]c(=S)n2c1C[C@@H](c1c(F)ccc(Cl)c1F)C2)NC1CCCC1 [Example 84, (S)-2-(6-(3-chloro-2,6-difluorophenyl)-3-thioxo-2,5,6,7-tetrahydro-3H-pyrrolo[1,2-c]imidazol-1-yl)-N-cyclopentylacetamide]",–,24.5 % of control,1.0 % of control
"CN(C)C(=O)Cc1[nH]c(=S)n2c1C[C@H](c1c(F)c(F)cc(F)c1F)C2 [Example 30, (R)—N,N-dimethyl-2-(6-(2,3,5,6-tetrafluorophenyl)-3-thioxo-2,5,6,7-tetrahydro-3H-pyrrolo[1,2-c]imidazol-1-yl)acetamide]",92.0 % of control,73.2 % of control,–
